Measurements: ChEMBL document CHEMBL5143537, “Quinazoline-based hydroxamic acid derivatives as dual histone methylation and deacetylation inhibitors for potential anticancer agents” (Bioorg Med Chem, 2022)
pIC50: −log10 of the molar value.

Assays:
[1] = system: K562; assay: Antiproliferative activity against human K562 cells measured after 72 hrs by MTT assay; type: functional, cell-based; settings: K562, 72 h
[2] = system: HT-29; assay: Antiproliferative activity against human HT-29 cells measured after 72 hrs by MTT assay; type: functional, cell-based; settings: HT-29, 72 h
[3] = system: HeLa; assay: Antiproliferative activity against human HeLa cells measured after 72 hrs by MTT assay; type: functional, cell-based
[4] = system: HCT-116; assay: Antiproliferative activity against human HCT-116 cells measured after 72 hrs by MTT assay; type: functional, cell-based; settings: HCT-116, 72 h
[5] = Cytotoxicity against human HL7702 cells measured after 72 hrs by MTT assay; settings: HL7702 (L02) cells
[6] = biological target: T1, Histone-lysine N-methyltransferase EHMT1 (Homo sapiens, UniProt Q9H9B1); assay: Inhibition of GLP (unknown origin)
T1 sequence (Q9H9B1 whole entry): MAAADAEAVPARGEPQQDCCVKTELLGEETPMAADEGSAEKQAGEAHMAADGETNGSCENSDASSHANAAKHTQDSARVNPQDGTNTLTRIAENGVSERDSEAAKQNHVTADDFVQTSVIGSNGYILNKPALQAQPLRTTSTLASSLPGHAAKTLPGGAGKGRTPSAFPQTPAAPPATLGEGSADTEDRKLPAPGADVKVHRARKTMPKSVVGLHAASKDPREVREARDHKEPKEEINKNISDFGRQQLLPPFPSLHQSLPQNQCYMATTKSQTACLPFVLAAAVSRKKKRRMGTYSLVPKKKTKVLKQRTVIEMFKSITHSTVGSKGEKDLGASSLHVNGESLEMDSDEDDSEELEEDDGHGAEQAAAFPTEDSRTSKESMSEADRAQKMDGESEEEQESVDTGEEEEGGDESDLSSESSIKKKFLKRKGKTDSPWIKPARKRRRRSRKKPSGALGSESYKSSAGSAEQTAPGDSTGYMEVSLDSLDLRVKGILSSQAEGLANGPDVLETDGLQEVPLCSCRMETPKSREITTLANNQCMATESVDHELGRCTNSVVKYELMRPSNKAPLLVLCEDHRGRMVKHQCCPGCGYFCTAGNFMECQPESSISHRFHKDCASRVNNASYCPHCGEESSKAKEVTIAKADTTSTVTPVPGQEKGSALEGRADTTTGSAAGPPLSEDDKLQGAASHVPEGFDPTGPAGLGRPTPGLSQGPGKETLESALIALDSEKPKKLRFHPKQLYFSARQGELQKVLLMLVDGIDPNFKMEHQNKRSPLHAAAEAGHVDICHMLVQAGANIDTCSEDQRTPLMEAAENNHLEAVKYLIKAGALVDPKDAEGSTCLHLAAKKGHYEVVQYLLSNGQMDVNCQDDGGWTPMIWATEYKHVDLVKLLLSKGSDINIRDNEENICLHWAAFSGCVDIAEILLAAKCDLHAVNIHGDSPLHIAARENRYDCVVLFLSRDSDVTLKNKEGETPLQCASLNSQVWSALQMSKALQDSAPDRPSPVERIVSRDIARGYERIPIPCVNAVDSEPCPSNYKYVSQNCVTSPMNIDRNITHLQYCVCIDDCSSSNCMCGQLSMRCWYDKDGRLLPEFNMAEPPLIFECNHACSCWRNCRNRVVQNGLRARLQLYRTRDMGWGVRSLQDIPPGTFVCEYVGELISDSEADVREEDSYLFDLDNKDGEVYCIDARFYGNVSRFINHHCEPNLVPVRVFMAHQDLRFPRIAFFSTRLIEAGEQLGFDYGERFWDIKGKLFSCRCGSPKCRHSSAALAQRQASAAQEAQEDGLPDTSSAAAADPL

[7] = biological target: T2, Protein deacetylase HDAC6 (Homo sapiens, UniProt Q9UBN7); assay: Inhibition of recombinant HDAC6 (unknown origin) using Ac-peptide-AMC as substrate preincubated for 15 mins followed by substrate addition and measured after 60 mins by fluorescence assay
T2 sequence (Q9UBN7 whole entry): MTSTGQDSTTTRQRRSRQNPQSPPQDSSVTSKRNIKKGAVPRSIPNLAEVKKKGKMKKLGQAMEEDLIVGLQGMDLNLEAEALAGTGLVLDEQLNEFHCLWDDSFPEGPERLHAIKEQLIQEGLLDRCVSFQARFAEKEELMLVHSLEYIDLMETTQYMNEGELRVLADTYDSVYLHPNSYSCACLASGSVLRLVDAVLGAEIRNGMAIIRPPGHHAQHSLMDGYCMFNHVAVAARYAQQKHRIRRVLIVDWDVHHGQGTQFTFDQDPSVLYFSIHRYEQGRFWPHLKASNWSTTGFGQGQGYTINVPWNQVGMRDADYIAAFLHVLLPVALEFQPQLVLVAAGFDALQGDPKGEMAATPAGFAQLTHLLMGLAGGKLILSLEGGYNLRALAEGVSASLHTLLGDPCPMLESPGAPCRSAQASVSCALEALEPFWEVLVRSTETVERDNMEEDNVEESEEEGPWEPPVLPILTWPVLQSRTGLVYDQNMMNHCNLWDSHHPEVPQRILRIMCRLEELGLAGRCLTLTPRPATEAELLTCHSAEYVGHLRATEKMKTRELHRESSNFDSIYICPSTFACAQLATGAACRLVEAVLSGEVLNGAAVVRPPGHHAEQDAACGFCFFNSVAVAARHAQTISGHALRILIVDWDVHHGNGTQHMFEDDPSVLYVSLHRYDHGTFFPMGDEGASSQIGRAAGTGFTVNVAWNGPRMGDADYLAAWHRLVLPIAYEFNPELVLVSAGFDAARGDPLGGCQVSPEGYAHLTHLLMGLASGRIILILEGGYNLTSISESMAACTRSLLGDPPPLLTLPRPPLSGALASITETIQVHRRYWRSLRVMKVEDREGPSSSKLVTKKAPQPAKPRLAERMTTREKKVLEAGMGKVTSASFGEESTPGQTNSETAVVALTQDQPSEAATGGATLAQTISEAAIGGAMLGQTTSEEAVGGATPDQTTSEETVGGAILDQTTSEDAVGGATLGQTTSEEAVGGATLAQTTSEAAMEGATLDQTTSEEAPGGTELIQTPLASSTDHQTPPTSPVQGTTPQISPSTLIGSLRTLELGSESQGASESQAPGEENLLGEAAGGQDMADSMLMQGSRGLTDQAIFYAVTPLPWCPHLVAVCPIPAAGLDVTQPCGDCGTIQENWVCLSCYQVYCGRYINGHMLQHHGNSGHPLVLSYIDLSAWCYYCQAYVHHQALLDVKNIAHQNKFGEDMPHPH

[8] = system: A-431; assay: Antiproliferative activity against human A-431 cells measured after 72 hrs by MTT assay; type: functional, cell-based; settings: A-431, 72 h
[9] = system: MDA-MB-231; assay: Antiproliferative activity against human MDA-MB-231 cells measured after 72 hrs by MTT assay; type: functional, cell-based; settings: MDA-MB-231, 72 h
[10] = biological target: Histone deacetylase 1 (Homo sapiens, UniProt Q13547); assay: Inhibition of recombinant human HDAC1 expressed in baculovirus infection system using Ac-peptide-AMC as substrate preincubated for 15 mins followed by substrate addition and measured after 60 mins by fluorescence assay
Histone deacetylase 1, sequence (Q13547 whole entry): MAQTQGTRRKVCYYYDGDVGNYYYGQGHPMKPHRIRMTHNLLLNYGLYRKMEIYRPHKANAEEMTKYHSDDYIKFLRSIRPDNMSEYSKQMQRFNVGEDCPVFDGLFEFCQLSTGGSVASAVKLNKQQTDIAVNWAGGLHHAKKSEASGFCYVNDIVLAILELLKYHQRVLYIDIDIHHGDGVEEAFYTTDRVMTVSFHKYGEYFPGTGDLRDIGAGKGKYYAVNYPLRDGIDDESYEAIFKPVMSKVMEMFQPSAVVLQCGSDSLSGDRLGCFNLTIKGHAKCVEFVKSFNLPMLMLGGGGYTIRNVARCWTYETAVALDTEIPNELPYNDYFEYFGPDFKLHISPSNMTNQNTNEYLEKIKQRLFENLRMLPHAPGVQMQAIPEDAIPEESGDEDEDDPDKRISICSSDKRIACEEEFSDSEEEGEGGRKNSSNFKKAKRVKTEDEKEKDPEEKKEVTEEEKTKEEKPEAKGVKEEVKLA

[11] = system: HepG2; assay: Antiproliferative activity against human HepG2 cells measured after 72 hrs by MTT assay; type: functional, cell-based; settings: HepG2, 72 h
[12] = Half life in rat liver microsomes at 1 uM by LC-MS/MS analysis; type: ADME, Microsome
[13] = Intrinsic clearance in rat liver microsomes at 1 uM by LC-MS/MS analysis; type: ADME, Microsome; settings: read-out: CLH

SMILES | pIC50 [1] | pIC50 [2] | pIC50 [3] | pIC50 [4] | IC50 at 72 h [5] [µM] | pIC50 [6] | pIC50 [7] | pIC50 [8] | pIC50 [9] | pIC50 [10] | pIC50 [11] | half-life at 1 µM [12] [min] | CLint scaled at 1 µM [13] [mL/min/kg]
COc1cc2nc(N3CCN(Cc4ccc(/C=C/C(=O)NO)cc4)CC3)nc(NC3CCN(Cc4ccccc4)CC3)c2cc1OC | < 4.30 | < 4.30 | < 4.30 | < 4.30 | > 50 | 6.72 | 7.30 | < 4.30 | < 4.30 | 7.03 | < 4.30 | – | –
COc1cc2nc(NCCCCCCC(=O)NO)nc(NC3CCN(C)CC3)c2cc1OC | 4.77 | 4.89 | 5.02 | < 4.30 | > 50 | 7.68 | 7.80 | < 4.30 | < 4.30 | 8.24 | 5.17 | – | –
COc1cc2nc(NCCCCCC(=O)NO)nc(NC3CCN(C)CC3)c2cc1OC | 5.04 | 5.27 | 5.19 | 5.16 | 31.7 | 7.96 | 7.29 | 5.23 | 4.35 | 8.89 | 4.87 | – | –
COc1cc2nc(N3CCN(CCCCCC(=O)NO)CC3)nc(NC3CCN(C(C)C)CC3)c2cc1OC | 4.99 | 5.10 | 4.53 | < 4.30 | > 50 | 8.80 | 7.62 | < 4.30 | < 4.30 | 7.29 | 4.92 | – | –
COc1cc2c(NC3CCN(C(C)C)CC3)nc(N3CCC(F)(F)CC3)nc2cc1OCCCN1CCCC1 | 6.04 | 5.87 | 5.76 | 5.30 | 3.23 | – | – | 5.47 | 5.49 | – | 5.57 | – | –
COc1cc2nc(NCCCCCC(=O)NO)nc(NC3CCN(Cc4ccccc4)CC3)c2cc1OC | 5.10 | 4.89 | 5.05 | 4.35 | 19.8 | 8.04 | 7.77 | 4.77 | 5.10 | 8.49 | 5.67 | – | –
COc1cc2nc(NCCCCCC(=O)NO)nc(NC3CCN(C(C)C)CC3)c2cc1OC | < 4.30 | 4.32 | 4.43 | 4.59 | > 50 | 7.01 | 6.88 | < 4.30 | < 4.30 | 8.08 | < 4.30 | – | –
COc1cc2nc(NCCCCCCC(=O)NO)nc(NC3CCN(C(C)C)CC3)c2cc1OC | 5.28 | 5.38 | 4.76 | 5.43 | 12.7 | 7.96 | 7.92 | 4.64 | < 4.30 | 8.38 | 5.33 | – | –
O=C(c1ccc(F)cc1)C1CCN(CCn2c(=O)[nH]c3ccccc3c2=O)CC1 [KETANSERIN] | – | – | – | – | – | – | – | – | – | – | – | 16.2 | 153
